# Tests used:
# HMEC1 = experiment: Cell viability assay (MTT), HMEC1; type: cell-based, Human; settings: MTT, 10% FBS, 6-day treatment, 1% DMSO
# Protocol: (§1) Table 12: 6-day cell viability assay (MTT) in the presence of 10% Fetal Bovine Serum and 1% DMSO, in HMEC1, HCT116, MDA-MB-231, MCF7 and NIH3T3 cell lines. 3 10^3 to 15 10^3 cells were seeded in 48-well plates in growth medium containing 10% FBS, with or without various concentrations of test compounds. Cell cultures were fed every 3 days with the appropriate media. Cell viability was determined on day 6. Data were analyzed and IC50s were calculated from dose-response curves using GraphPad Prism. Results summarized in the tables are mean±SEM of 1 to 8 independent experiments.
# (§2) In order to determine a compound's effect on cell viability, microculture tetrazolium assays (MTT) were performed as described by Carmichael et al. (1996) with modifications. Four human tumoral cell lines, namely HCT116 colon adenocarcinoma, H460 lung carcinoma, MCF-7 and MDA-MB-231 breast carcinoma cell lines, DLD1 colorectal adenocarcinoma, HeLa adenocarcinoma, HepG2 hepatocellular carcinoma. 3 immortalized but non tumorigenic cell lines, namely NIH3T3 mouse fibroblasts (American Type Culture Collection) and primary hepatocytes (Biopredic international), cultured according to their recommendations together with Human Microvasculature Endothelial Cell line HMEC1 (National Center for Infectious Diseases). Briefly, cells were seeded in 48-well plates 24 hours before drug addition. Cells were treated with 0 to 200 μM (11 concentrations) of compound solubilized in DMSO, adjusting the final concentration of DMSO to 1% in the well. 16 hours, and three or six days after treatment, 0.5 mg/ml MTT (Sigma) was added to the medium and cells were incubated for 1-5 hours at 37° C. before solubilization of formazan crystals in 100% DMSO. Absorbance was measured using a spectrophotometer at a wavelength of 550 nm. Data was analyzed using the GraphPad Prism software (GraphPad Software, Inc.), and IC50 (dose leading to 50% cell death) was calculated from the dose-response curves.
# HCT116 = experiment: Cell viability assay (MTT), HCT116; type: cell-based, human; settings: 10% FBS, 6-day treatment, 1% DMSO
# Protocol: as §1
# (§3) Table 13: 6-day cell viability assay (MTT) in the presence of 0.5% Fetal Bovine Serum and 1% DMSO, in HCT116 and MDA-MB-231 cell lines. 7.5 10^4 to 15 10^4 cells were seeded in 48-well plates in growth medium containing 10% FBS, with or without various concentrations of test compounds. Cell cultures were fed every 3 days with the appropriate media. Cell viability was determined on day 6. Data were analyzed and IC50s were calculated from dose-response curves using GraphPad Prism. Results summarized in the tables are mean±SEM of 1 to 2 independent experiments.
# (§4) Table 14: 3-day cell viability assay (MTT) in the presence of 10% Fetal Bovine Serum and 1% DMSO, in DLD1, HCT116, MDA-MB-231, MCF7 and HeLa cells. 7.5 10^3 to 1.5 10^4 cells were seeded in 48-well plates in growth medium containing 10% FBS, with or without various concentrations of test compounds. Data were analyzed and IC50s were calculated from dose-response curves using GraphPad Prism. Results summarized in the tables are mean±SEM of 1 to 7 independent experiments.
# (§5) Table 15: 16-hour cell viability assay (MTT) in the presence of 10% Fetal Bovine Serum and 1% DMSO, in HCT116, MDA-MB-231, NIH3T3, HepG2 and primary hepatocytes. 5 10^4 to 10 10^4 cells were seeded in 48-well plates in growth medium containing 10% FBS, with or without various concentrations of test compounds. Data were analyzed and IC50s were calculated from dose-reponse curves using GraphPad Prism. Results summarized in the tables are mean±SEM of 1 to 2 independent experiments.
# as §2
# MDA-MB-231 = experiment: Cell viability assay (MTT), MDA-MB-231; type: cell-based, human; settings: Homo sapiens, MDA-MB-231, 144 h, 10% FBS, 6-day treatment, 1% DMSO, read-out: IC50 μM, MDA-MB-231
# Protocol: as §1, §3, §4, §5, §2
# NIH 3T3 = experiment: Cell viability assay (MTT), NIH 3T3; type: cell-based, mouse; settings: Mus musculus, NIH3T3, 144 h, 10% FBS, 6-day treatment, 1% DMSO
# Protocol: as §1, §5, §2
Structure (SMILES),"IC50 (HMEC1; Homo sapiens, HMEC-1, 144 h)","IC50 (HCT116; Homo sapiens, HCT-116, 144 h)",melting point,IC50 (HMEC1),IC50 (HCT116),IC50 (MDA-MB-231),IC50 (NIH 3T3)
"Cl.Cl.Cl.O=c1cc(CN2CCNCC2)occ1OCCCCCOc1ccnc2cc(Cl)ccc12 [EHT 0872, 5-(5-(7-Chloroquinolin-4-yloxy)pentyloxy)-2-((piperazin-1-yl)methyl)-4H-pyran-4-one trihydrochloride]",28.4 µM,9.3 µM,164.7 °C,–,–,–,–
"O=c1cc(COC2CCCCO2)occ1OCCCCCCCCSc1ccnc2cc(C(F)(F)F)ccc12 (stereo not drawn) [EHT 1006, 5-(8-(7-(Trifluoromethyl)quinolin-4-ylthio)octyloxy)-2-((tetrahydro-2H-pyran-2-yloxy)methyl)-4H-pyran-4-one]",< 10 µM,–,66.1 °C,9.5 µM,–,–,–
"O=c1cc(CCl)occ1OCCCCCSc1ccnc2cc(C(F)(F)F)ccc12 [EHT 1494, 2-Chloromethyl-5-[5-(7-trifluoromethyl-quinolin-4-ylsulfanyl)-pentyloxy]-4H-pyran-4-one]",–,–,38.2 °C,–,–,–,–
"COCOCc1cc(=O)c(OCCCCCSc2ccnc3cc(C(F)(F)F)ccc23)co1 [EHT 2168, 2-Methoxymethoxymethyl-5-[5-(7-trifluoromethyl-quinolin-4-ylsulfanyl)-pentyloxy]-4H-pyran-4-one]",19.3 µM,6 µM,122.1 °C (dec.),–,–,–,–
"CC(C)(C)OC(=O)N1CCN(Cc2cc(=O)c(OCCCCCOc3ccnc4cc(Cl)ccc34)co2)CC1 [EHT 2580, tert-Butyl 4-((5-(5-(7-chloroquinolin-4-yloxy)pentyloxy)-4-oxo-4H-pyran-2-yl)methyl)piperazine-1-carboxylate]",–,–,130.2 °C,–,–,–,–
"CC(=O)N1CCN(Cc2cc(=O)c(OCCCCCSc3ccnc4cc(C(F)(F)F)ccc34)co2)CC1 [EHT 3980, 5-(5-(7-(Trifluoromethyl)quinolin-4-ylthio)pentyloxy)-2-((4-acetylpiperazin-1-yl)methyl)-4H-pyran-4-one]",38.5 µM,< 4 µM,99.5 °C,–,2.3 µM,–,–
"CN1CCN(Cc2cc(=O)c(OCCCCCOc3ncnc4ccccc34)co2)CC1 [EHT 4063, 5-(5-(Quinazolin-4-yloxy)pentyloxy)-2-((4-methylpiperazin-1-yl)methyl)-4H-pyran-4-one]",~200 µM,~200 µM,78.2 °C,–,–,–,–
"O=c1cc(COC2CCCCO2)occ1OCCCCSc1ccnc2cc(C(F)(F)F)ccc12 (stereo not drawn) [EHT 4745, 2-(Tetrahydro-pyran-2-yloxymethyl)-5-[4-(7-trifluoromethyl-quinolin-4-ylsulfanyl)-butoxy]-4H-pyran-4-one]",< 10 µM,4.1 µM,97.3 °C (dec.),9.8 µM,–,–,–
"O=c1cc(CO)occ1OCCCCCSc1ccnc2cc(C(F)(F)F)ccc12 [EHT 5909, 2-Hydroxymethyl-5-[5-(7-trifluoromethyl-quinolin-4-ylsulfanyl)-pentyloxy]-4H-pyran-4-one]",–,–,133.2 °C (dec.),–,–,–,–
"O=C(CCCCOc1coc(CN2CCOCC2)cc1=O)Nc1ccnc2cc(C(F)(F)F)ccc12 [EHT 6037, 5-(6-(Morpholinomethyl)-4-oxo-4H-pyran-3-yloxy)-N-(7-(trifluoromethyl)quinolin-4-yl)pentanamide]",–,–,126.8 °C,–,–,–,–
"O=c1cc(COC2CCCCO2)occ1OCCCCCCSc1ccnc2cc(C(F)(F)F)ccc12 (stereo not drawn) [EHT 6271, 2-(Tetrahydro-pyran-2-yloxymethyl)-5-[6-(7-trifluoromethyl-quinolin-4-ylsulfanyl)-hexyloxy]-4H-pyran-4-one]",< 10 µM,–,67.8 °C,9 µM,–,–,–
"O=c1cc(CN2CCOCC2)occ1OCCOc1ccnc2cc(C(F)(F)F)ccc12 [EHT 6892, 5-(2-(7-(trifluoromethyl)quinolin-4-yloxy)ethoxy)-2-(morpholinomethyl)-4H-pyran-4-one]",–,101 µM,125.6 °C,–,–,–,–
"CCN(CC)Cc1cc(=O)c(OCCCCCSc2ccnc3cc(C(F)(F)F)ccc23)co1 [EHT 7370, 2-((Diethylamino)methyl)-5-(5-(7-(trifluoromethyl)quinolin-4-ylthio)pentyloxy)-4H-pyran-4-one]",12.1 µM,4.4 µM,71.2 °C,–,–,–,–
"CS(=O)(=O)N1CCN(Cc2cc(=O)c(OCCCCCSc3ccnc4cc(C(F)(F)F)ccc34)co2)CC1 [EHT 8366, 5-(5-(7-(Trifluoromethyl)quinolin-4-ylthio)pentyloxy)-2-((4-Methylsulfonylpiperazin-1-yl)methyl)-4H-pyran-4-one]",–,–,66.3 °C,–,–,–,–
"O=c1cc(CF)occ1OCCCCCSc1ccnc2cc(C(F)(F)F)ccc12 [EHT 8817, 5-(5-(7-(Trifluoromethyl)quinolin-4-ylthio)pentyloxy)-2-(fluoromethyl)-4H-pyran-4-one]",41 µM,12.1 µM,107 °C,–,–,–,–
"O=c1cc(CN2CCOCC2)occ1OCc1ccccc1CSc1ccnc2cc(C(F)(F)F)ccc12 [EHT 9069, 5-((2-((7-(Trifluoromethyl)quinolin-4-ylthio)methyl)phenyl)methoxy)-2-(morpholinomethyl)-4H-pyran-4-one]",34.8 µM,15.5 µM,71.6 °C,–,–,13.5 µM,41.3 µM
"O=c1cc(CN2CCCCC2)occ1OCCCCCSc1ccnc2cc(C(F)(F)F)ccc12 [EHT 9317, 5-(5-(7-(Trifluoromethyl)quinolin-4-ylthio)pentyloxy)-2-((piperidin-1-yl)methyl)-4H-pyran-4-one]",11.7 µM,< 4 µM,108.9 °C,–,2.3 µM,–,–
